# Results taken from the METLIN SMRT retention time set (Domingo-Almenara et al. 2019).
# Experiment: gradient 5% acetonitrile 3 min, to 50% in 2 min, to 85% in 15 min, held 3 min, 100 µL/min
# Conditions: column: Zorbax Extend-C18 2.1 x 50 mm; eluents: water / acetonitrile, 0.1% formic acid
# Method in brief: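 Pure standards were analyzed in mixtures of ~100 molecules using HPLC coupled to a quadrupole time-of-flight mass spectrometer, in both positive and negative ionization mode. Separation used a Zorbax Extend-C18 column (2.1 × 50 mm, 1.8 μm) at 100 μL/min, with water and acetonitrile each containing 0.1% formic acid. Dead and dwell volumes were 40 μL and 900 μL, and data were collected over 3 months. Retention time was read from computationally picked adduct peaks, each inspected manually.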
row,RP-LC retention time [s],SMILES
1,770,CCCN1C(=O)C2CCC(=O)N2c2ccc(C(=O)Nc3ccc4c(c3)OCCO4)cc21 (stereo not drawn)
2,961,CC(C)c1ccc(NC(=O)Cn2cccc2-c2nnc(C3CC3)o2)cc1
3,722,CCc1cccc(NS(=O)(=O)c2cc3n(c2)CCN(C)C3=O)c1
4,1050,Cc1ccc(-c2nc(Cn3cccc3C(=O)NC3CCCC3)no2)cc1
5,747,O=C(Nc1ccc2c(c1)OCO2)C1CCCN(c2nnc3ccc(Cl)cn23)C1 (stereo not drawn)
6,1140,COCCCNC(=O)c1cc(-c2ccc(OC)cc2)nc2n[nH]c(-c3ccc(OC)cc3)c12
7,789,O=C(NCCCc1ccccc1)c1n[nH]c2c1CN(C(=O)C1CC1)CC2
8,590,O=C(Nc1nccnc1C(=O)NCc1ccncc1)c1ccccc1
9,659,Cc1cc(C(F)(F)F)nn1CC(=O)N1CCc2nn(C)c(=O)n2CC1
10,895,Cc1noc(-c2cccnc2SCC(=O)Nc2cccc(Br)c2)n1
11,703,COCCNC(=O)c1ccc(CNS(=O)(=O)c2cc(C)ccc2C)cc1
12,542,O=C1C(N2CCN(S(=O)(=O)c3ccc(F)cc3F)CC2)CCN1Cc1cccnc1 (stereo not drawn)
13,991,COCC(=O)N(CC(=O)N1CCc2sccc2C1COc1ccc(Cl)cc1)C(C)(C)C (stereo not drawn)
14,856,Cn1nc(C(=O)NCc2ccc3c(c2)OCO3)c2c1CCN(C(=O)COc1ccc(Cl)cc1)C2
15,1060,Cc1ccccc1Nc1c(-c2ccc(Br)cc2)nc2cnccn12
16,764,Cc1ccc(-c2nc(-c3ccc4nncn4c3)no2)cc1F
17,977,CC1=NS(=O)(=O)N(C)C=C1C(=O)OCc1nc(-c2ccc(C)cc2)no1
18,743,Cc1ccc(N2CCN(S(=O)(=O)c3cc4n(c3)CCCNC4=O)CC2)cc1
19,1010,COc1ccc(-c2ncc3c(n2)CCN(C(=O)Nc2cccc(Br)c2)C3)cc1
20,764,CCc1sc(NC(=O)Cn2nc3c(cc2=O)CCCC3)nc1C(=O)OC
21,941,COc1ccc(-c2noc(C3CCCN3C(=O)Nc3cc(OC)cc(OC)c3)n2)cc1 (stereo not drawn)
22,606,CC(C)NC(=O)c1ccccc1OCC1CCCN(C2CCC2)C1 (stereo not drawn)
23,597,CCCN1CCN(CCCNC(=O)c2ccc3c(c2)N(C)C(=O)C2CCCCN32)CC1 (stereo not drawn)

# Further lines, the compound ahead of its results:
row,SMILES,RP-LC retention time [s]
1,CCNC(=O)c1nc(C(=O)NC(C)C)cs1,656
2,Cc1ccc(CNC(=O)c2cccn2Cc2noc(C)n2)cc1,828
3,CCCc1nc(N2CCN(c3ccccn3)CC2)ncc1C(=O)O,606
4,O=C(NC1CCN(c2cc(-c3cccs3)[nH]n2)C1)c1ccc2nc[nH]c2c1 (stereo not drawn),564
5,CCCNc1cc(N2CCCC(CCC(=O)N3CCN(C(=O)c4ccco4)CC3)C2)ncn1 (stereo not drawn),628
6,OCCNCc1ccc(-c2ccc(Cl)cc2)o1,966
7,CN(C)c1cccc(C(=O)Nc2cccc(-c3nnc4n3CCCC4)c2)c1,594
8,CCCc1noc(CN2N=C(C(=O)N3CCC(C)CC3)S(=O)(=O)c3ccccc32)n1,954
9,CCCCNC(=O)c1sc(Nc2cccc(C)n2)nc1C,777
10,Cc1ccc(-c2nnc(CC(=O)NCCC(C)C)o2)cc1,829
11,Cc1ccc2c(c1)N(Cc1ccccc1F)N=C(C(=O)N1CCCC1)S2(=O)=O,885
12,O=S(=O)(c1cccnc1)N1CCC(c2nnc(-c3ccc(F)cc3)o2)CC1,734
13,Cc1ccc(NC(=O)N2CCC(c3cc(N)on3)CC2)c(Cl)c1,736
14,O=C(CN1CCC(c2nc(-c3ccc(F)cc3)no2)CC1)NC1CCCCC1,715
15,O=C(NC1CC1)c1ccccc1OCC1CCCN(Cc2cn[nH]c2-c2cccs2)C1 (stereo not drawn),615
16,O=C(Cn1cc2c(n1)CCCCC2)Nc1ccc(Br)cc1F,1050
17,CCN(C(=O)C1CCCN(c2ncnc3c2nc2n3CCCCC2)C1)c1ccccc1C (stereo not drawn),890
18,Cc1cc(C(=O)N[C@@H]2CN(c3ncccn3)C[C@H]2CO)ccn1,529
19,CCOc1ccc(-c2noc(Cc3nc(-c4ccc(C)cc4)cs3)n2)cc1,1320
20,O=C(NCCC1CCN(C(=O)Nc2ccc(F)cc2F)CC1)C1CC1,691
21,COCCCNC(=O)c1ccc(Oc2nccnc2N2CCC(C)CC2)cc1,956
22,Cc1ccc(CNC(=O)c2ccc3c(c2)nc2n3CCN(C3CCCCC3)C2=O)cc1,839
23,CCOc1ccc(C(=O)NC(C(=O)Nc2nc3ccccc3[nH]2)C(C)C)cc1OCC (stereo not drawn),735

row,SMILES,RP-LC retention time [s]
1,N#Cc1cccc(N2C=C(C(=O)N3CCCC3)S(=O)(=O)c3ccc(F)cc32)c1,752
2,Cc1sc(NC(=O)CCc2ccccc2)nc1-c1ccc2c(c1)NC(=O)CO2,888
3,c1cc(-c2nnc3sc(-c4csc5c4CCCC5)nn23)ccn1,993
4,COc1ccc(OCc2noc(CNC(=O)c3ccccc3Cl)n2)cc1,793
5,CC(C)C(=O)Nc1cnc(-c2ccc(F)cc2)nc1,861
6,COc1ccc(CC(=O)N2CCc3nc(CNC(=O)C4CCC4)n(C)c3C2)cc1,589
7,Cc1nc2c(NS(=O)(=O)c3ccc(Cl)cc3)cccn2n1,778
8,Cc1cc(C)cc(NC(=O)CN2CCC(C(=O)NC3CC3)CC2)c1,564
9,Cn1c(C2CCN(C(=O)Nc3ccccc3C(F)(F)F)CC2)cc(=O)n2nccc12,654
10,Cc1ccc(C(=O)N2CCOc3ccc(N(C)C)cc3C2)s1,632
11,CCOC(=O)C1CCN(C(=O)Cn2c3ccccc3c3cnn(C)c(=O)c32)CC1,775
12,CCOC(=O)c1nc(NCc2ccccc2OC)c2ccccc2n1,774
13,Cn1c(=O)c(NCc2cccc(C(F)(F)F)c2)nc2ccncc21,658
14,Cc1noc2ncn(CC(=O)Nc3c(F)c(F)cc(F)c3F)c(=O)c12,759
15,COc1ccc(N2CCN(c3nc(C(=O)N4CCN(C(C)C)CC4)cs3)CC2)cc1,627
16,O=C(NCCN1CCN(S(=O)(=O)c2ccc(C(F)(F)F)cc2)CC1)c1ccsc1,610
17,O=c1c2sccc2n(Cc2nc(-c3ccc(Cl)c(F)c3)no2)c(=O)n1-c1cccc(F)c1,1090
18,O=C(CN1C(=O)C2CCCCN2c2ccc(S(=O)(=O)N3CCCC3)cc21)NCc1ccccn1 (stereo not drawn),654
19,CC(CCNC(=O)C1CCN(Cc2cn(C)c3ccc(Cl)cc23)CC1)N1CCCCCC1 (stereo not drawn),569
20,COc1ccccc1-c1noc(C2CCCN2C(=O)Nc2ccc3c(c2)OCCO3)n1 (stereo not drawn),762
21,Cc1cccc(NC(=O)N2CCCC2c2nc(-c3ccccc3)no2)c1 (stereo not drawn),984
22,CCc1noc(NC(C)=O)c1-c1ccc(OC)c(S(=O)(=O)Nc2ccc(C)cc2)c1,784
